Experimental data from US11279703B2, “Fused pyrimidine compounds as BRD4 and JAK2 dual inhibitors and methods for use thereof” (APTOSE BIOSCIENCES INC., priority 2016, dated 2022).

How the values were obtained:
BRD4-BD2 = BRD4-BD2 (Homo sapiens (Human), UniProt O60885); experiment: AlphaLisa bromodomain binding assay, BRD4-BD2; settings: Table 6; read-out: BRD4(2) IC50
From the text: (§1) An AlphaLisa assay was used to observe bromodomain binding and measure IC50s for the compounds disclosed herein. An AlphaLisa assay is a bead-based assay used to detect interactions between bromodomains and polyacetylated histone peptides. Donor and acceptor beads bound to target and ligand are brought into proximity by this protein-protein interaction.
(§2) Equipment Required • 1. […] Plate centrifuge • 3. Plate shaker • 4. […] Single channel and multi-channel pipettes • 6. Microplate reader (Pherastar)
(§3) Stock and Final Assay Concentrations (FAC) • 1. All reference and test compounds are made at a concentration of 10 mM in DMSO. Compounds are serially diluted in DMSO and a FAC starting from 10 μM to 10 point 3 fold serial dilutions is arrived. FAC of DMSO is 1%. • 2. Enzyme stock and FAC
(§4) Biotinylated substrate (Acetylated histone H4, biotinylated substrate—cat no. AS64989-025, Anaspec) stock and FAC
(§5) • 4. Acceptor and donor beads stock and FAC
(§6) Buffers • For the enzyme and substrate dilution following buffer is used (for 50 ml) • HEPES: 50 mM 2.5 ml • NaCl: 25 mM 1.25 ml • DTT: 10 mM 0.05 ml • BSA: 0.1% 0.05 g • MilliQ water: 45.7 ml • For dilution of acceptor and donor beads AlphaLISA 5× epigenetics Buffer Perkin Elmer (Cat: AL008C) is used at 1× concentration.
(§7) Procedure • 1. […] Tap the plate gently • 3. […] Cover with plate sealer • 5. […] Incubate the plate at room temperature for 10 minutes • 7. Add 10 μl of the substrate • 8. Cover with plate sealer • 9. […] Cover with plate sealer • 14. […] Cover with plate sealer • 18.
(§8) The percent inhibition is calculated in the excel analysis template and the IC50 values are subsequently determined using a sigmoidal dose-response curve (variable slope) using GraphPad Prism® 5 software.

BRD4-BD1 = BRD4-BD1 (Homo sapiens (Human), UniProt O60885); experiment: AlphaLisa bromodomain binding assay, BRD4-BD1; settings: Table 6; read-out: BRD4(1) IC50
JAK1 = JAK1 (Homo sapiens (Human), UniProt P23458); experiment: HTRF kinase assay, JAK1; assay type: biochemical; settings: Table 6
Sequence of JAK1 (P23458 whole entry): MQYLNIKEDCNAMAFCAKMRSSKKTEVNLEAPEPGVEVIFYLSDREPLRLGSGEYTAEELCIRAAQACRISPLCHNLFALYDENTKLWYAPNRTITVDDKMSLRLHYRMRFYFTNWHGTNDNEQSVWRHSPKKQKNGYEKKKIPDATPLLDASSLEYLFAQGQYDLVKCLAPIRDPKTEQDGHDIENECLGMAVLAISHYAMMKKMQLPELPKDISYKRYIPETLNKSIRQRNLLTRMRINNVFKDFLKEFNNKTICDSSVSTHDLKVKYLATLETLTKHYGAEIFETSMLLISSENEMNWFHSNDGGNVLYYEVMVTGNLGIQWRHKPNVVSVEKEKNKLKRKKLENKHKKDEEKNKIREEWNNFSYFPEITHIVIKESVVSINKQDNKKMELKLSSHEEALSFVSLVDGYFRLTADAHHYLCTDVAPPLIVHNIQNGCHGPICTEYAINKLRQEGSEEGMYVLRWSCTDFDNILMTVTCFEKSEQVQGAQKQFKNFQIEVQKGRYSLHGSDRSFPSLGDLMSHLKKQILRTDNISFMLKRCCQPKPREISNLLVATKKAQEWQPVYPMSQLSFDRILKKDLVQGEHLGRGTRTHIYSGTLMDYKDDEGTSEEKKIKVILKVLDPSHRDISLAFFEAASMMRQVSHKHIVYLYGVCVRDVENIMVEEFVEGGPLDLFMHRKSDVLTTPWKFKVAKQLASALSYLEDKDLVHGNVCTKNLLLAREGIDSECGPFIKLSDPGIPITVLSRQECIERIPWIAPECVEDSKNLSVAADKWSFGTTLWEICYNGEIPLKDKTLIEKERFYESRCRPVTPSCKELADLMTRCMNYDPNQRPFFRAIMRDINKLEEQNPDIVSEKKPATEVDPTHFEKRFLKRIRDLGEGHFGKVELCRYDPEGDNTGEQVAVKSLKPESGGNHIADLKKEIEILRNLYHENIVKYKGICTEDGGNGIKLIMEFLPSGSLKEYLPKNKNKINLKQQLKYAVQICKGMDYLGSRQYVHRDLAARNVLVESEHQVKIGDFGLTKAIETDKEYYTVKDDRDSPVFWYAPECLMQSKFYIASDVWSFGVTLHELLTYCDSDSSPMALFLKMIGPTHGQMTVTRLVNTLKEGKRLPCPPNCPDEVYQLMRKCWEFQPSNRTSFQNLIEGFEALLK
From the text: (§9) A kinase assay with HTRF was used to observe JAK activity and calculate the IC50s of compounds disclosed herein. HTRF is an enzymatic assay used to determine the amount of phosphorylated peptide. FRET (Fluorescence Resonance Energy Transfer) is based on the transfer of energy between two fluorophores—a donor and an acceptor—when in close proximity. Molecular interactions between biomolecules can be assessed by coupling each partner with a fluorescent label and by detecting the level of energy transfer. The amount of phopshorylated peptide can be detected using a combination of a Eu 3+Cryptate labeled anti-phospho residue antibody, SA-XL665 and a biotinylated substrate. The signal is proportional to the concentration of phospho-residues.
(§10) Equipment Required • 1. […] Plate centrifuge • 3. Plate shaker • 4. […] Single channel and multi-channel pipettes • 6. Microplate reader (Pherastar)]
as §3, with “arrived. For Ruxolitinib the starting FAC is 1 μM.” for “arrived.”
(§11) • JAK-1: Invtirogen Cat: PR8767C • JAK-2: Invtirogen Cat: PR7820B • JAK-3: Invtirogen Cat: PR7507B • 3. Substrate (synthetic peptide-Biotinylated-N-terminal tag-[…] from Biopeptide) stock and FAC
(§12) • Adenosine 5′-triphosphate disodium salt hydrate: Sigma Cat: A26209 • 5. […] Buffers • Base buffer (for 50 ml)
(§13) • HTRF buffer: • 50 mM Tris-HCl, pH—7.5 • 100 mM NaCl • 0.1% BSA • 0.05% Tween20 • 0.5 mM EDTA
(§14) To a 384 well black-plate: • 1. Add 17 μL of the buffer to each well of the 384-well black plate • 2. […] Add 5 μl of the enzyme to each well of the plate • 4. Add 10 μl of the substrate and ATP mix to all the wells • 5. Cover with plate sealer • 6. […] Incubate at room temperature for 1 hour on shaker • 8. […] Add 37.5 μL of the HTRF mix to these wells. • 9. Incubate the plate at room temperature on shaker for 45 minutes. • 10.
as §8

BRDT-BD1 = BRDT-BD1 (Homo sapiens (Human), UniProt Q58F21); experiment: AlphaLisa bromodomain binding assay, BRDT-BD1; settings: Table 6; read-out: BRDT(1) IC50
From the text: as §1, §2, §3, §4, §5, §6, §7, §8

JAK2 = JAK2 (Homo sapiens (Human), UniProt O60674); experiment: HTRF kinase assay, JAK2; assay type: biochemical; settings: Table 6
Sequence of JAK2 (O60674 whole entry): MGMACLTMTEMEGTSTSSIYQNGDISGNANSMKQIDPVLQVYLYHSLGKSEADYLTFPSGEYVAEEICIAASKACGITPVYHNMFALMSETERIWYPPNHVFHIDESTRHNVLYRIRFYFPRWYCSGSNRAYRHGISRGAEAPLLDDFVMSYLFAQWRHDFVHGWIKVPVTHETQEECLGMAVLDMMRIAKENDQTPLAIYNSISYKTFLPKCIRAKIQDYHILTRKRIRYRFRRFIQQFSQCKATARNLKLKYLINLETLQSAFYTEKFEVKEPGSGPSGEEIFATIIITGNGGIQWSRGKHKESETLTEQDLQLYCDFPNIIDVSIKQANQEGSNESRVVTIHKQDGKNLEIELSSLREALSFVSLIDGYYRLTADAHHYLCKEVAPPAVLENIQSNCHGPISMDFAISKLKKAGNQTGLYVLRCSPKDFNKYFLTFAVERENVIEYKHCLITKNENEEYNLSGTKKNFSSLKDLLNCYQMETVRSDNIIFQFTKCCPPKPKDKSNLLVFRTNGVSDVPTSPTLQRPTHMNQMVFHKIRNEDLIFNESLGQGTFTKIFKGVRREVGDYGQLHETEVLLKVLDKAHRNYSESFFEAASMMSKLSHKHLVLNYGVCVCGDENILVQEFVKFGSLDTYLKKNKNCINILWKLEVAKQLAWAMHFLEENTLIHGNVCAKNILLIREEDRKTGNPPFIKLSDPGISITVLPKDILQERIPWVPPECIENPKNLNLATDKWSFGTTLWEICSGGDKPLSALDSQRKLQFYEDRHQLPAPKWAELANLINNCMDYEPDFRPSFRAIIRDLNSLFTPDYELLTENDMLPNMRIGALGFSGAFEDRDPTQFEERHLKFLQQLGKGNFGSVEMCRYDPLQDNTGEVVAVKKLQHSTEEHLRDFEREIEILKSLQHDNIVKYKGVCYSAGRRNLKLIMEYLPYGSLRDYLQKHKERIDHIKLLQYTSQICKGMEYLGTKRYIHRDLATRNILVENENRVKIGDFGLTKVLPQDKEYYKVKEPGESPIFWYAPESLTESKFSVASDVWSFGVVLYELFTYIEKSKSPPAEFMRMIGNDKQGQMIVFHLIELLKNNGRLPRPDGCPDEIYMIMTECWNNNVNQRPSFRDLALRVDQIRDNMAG

BRD3-BD1 = BRD3-BD1 (Homo sapiens (Human), UniProt Q15059); experiment: AlphaLisa bromodomain binding assay, BRD3-BD1; settings: Table 6; read-out: BRD3(1) IC50
Sequence of BRD3-BD1 (Q15059 34-140): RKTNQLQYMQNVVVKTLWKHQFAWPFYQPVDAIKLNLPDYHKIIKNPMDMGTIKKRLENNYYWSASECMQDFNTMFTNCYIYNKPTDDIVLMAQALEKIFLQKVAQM
From the text: as §1, §2, §3, §4, §5, §6, §7, §8

BRD2-BD1 = BRD2-BD1 (Homo sapiens (Human), UniProt P25440); experiment: AlphaLisa bromodomain binding assay, BRD2-BD1; settings: Table 6; read-out: BRD2(1) IC50
Sequence of BRD2-BD1 (P25440 74-180): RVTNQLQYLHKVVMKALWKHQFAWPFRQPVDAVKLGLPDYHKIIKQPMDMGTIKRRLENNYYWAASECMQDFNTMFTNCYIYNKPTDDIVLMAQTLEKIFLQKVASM
From the text: as §1, §2, §3, §4, §5, §6, §7, §8

JAK3 = JAK3 (Homo sapiens (Human), UniProt P52333); experiment: HTRF kinase assay, JAK3; assay type: biochemical; settings: Table 6
Sequence of JAK3 (P52333 whole entry): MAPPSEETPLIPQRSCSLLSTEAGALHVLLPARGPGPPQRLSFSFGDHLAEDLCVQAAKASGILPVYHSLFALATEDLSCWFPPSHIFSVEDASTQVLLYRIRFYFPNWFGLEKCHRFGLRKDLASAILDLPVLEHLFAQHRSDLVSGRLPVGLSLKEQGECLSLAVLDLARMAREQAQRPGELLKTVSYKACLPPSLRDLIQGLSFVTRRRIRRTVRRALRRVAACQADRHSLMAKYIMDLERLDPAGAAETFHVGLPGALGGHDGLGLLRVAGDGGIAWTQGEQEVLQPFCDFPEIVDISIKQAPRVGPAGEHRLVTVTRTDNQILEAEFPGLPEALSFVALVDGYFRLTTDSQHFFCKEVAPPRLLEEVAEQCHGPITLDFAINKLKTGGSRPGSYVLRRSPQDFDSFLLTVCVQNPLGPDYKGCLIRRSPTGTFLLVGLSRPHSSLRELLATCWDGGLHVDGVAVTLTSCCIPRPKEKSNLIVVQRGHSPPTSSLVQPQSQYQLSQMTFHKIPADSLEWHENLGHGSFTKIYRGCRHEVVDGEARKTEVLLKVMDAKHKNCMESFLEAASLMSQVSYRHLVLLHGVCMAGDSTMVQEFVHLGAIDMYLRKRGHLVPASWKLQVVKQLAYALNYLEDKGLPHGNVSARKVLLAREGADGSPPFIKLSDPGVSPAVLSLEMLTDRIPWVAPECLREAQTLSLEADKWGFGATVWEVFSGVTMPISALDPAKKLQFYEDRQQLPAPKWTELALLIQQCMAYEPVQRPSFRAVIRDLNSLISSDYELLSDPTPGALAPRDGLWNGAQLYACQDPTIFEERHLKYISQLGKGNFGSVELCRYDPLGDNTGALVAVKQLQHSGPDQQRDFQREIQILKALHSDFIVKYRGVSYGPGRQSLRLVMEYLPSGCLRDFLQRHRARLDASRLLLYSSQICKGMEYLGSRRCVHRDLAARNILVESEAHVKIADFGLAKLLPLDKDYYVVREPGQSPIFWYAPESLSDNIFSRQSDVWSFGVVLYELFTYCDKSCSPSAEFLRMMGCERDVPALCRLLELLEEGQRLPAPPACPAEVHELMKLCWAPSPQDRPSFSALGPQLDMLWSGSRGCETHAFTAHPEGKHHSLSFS
From the text: as §9, §10
as §3, with “arrived. For Ruxolitinib the starting FAC is 1 μM.” for “arrived.”
as §11, §12, §13, §14, §8

IC50 (BRD4-BD2)	IC50 (BRD4-BD1)	IC50 (JAK1)	IC50 (BRDT-BD1)	IC50 (JAK2)	IC50 (BRD3-BD1)	IC50 (BRD2-BD1)	IC50 (JAK3)	Compound
30 nM	87 nM	1010 nM	131 nM	24 nM	92 nM	157 nM		Cc1cnc(Nc2ccc(C(=O)NC3CCN(C)CC3)c(F)c2)nc1Nc1ccc2c(c1)N(S(=O)(=O)C(C)(C)C)CC2
451 nM	420 nM		638 nM	2.3 nM	853 nM	682 nM	185 nM	Cc1cnc(Nc2ccc(OCCN3CCCC3)cc2)nc1Nc1cccc(NS(=O)(=O)C(C)(C)C)c1
487 nM	434 nM	424 nM	1110 nM	18 nM	652 nM	2860 nM	125 nM	CN1CCN(c2ccc(Nc3ncc4ccn(-c5cccc(NS(=O)(=O)C(C)(C)C)c5)c4n3)cc2F)CC1
156 nM	240 nM	57 nM	230 nM	11.5 nM	89 nM	314 nM	103 nM	CN1CCC(NC(=O)c2ccc(Nc3ncc4ccn(-c5cccc(NS(=O)(=O)C(C)(C)C)c5)c4n3)cc2F)CC1
325 nM	676 nM	473 nM	322 nM		570 nM	1400 nM	100 nM	CC(C)(C)S(=O)(=O)Nc1cccc(-n2ccc3cnc(Nc4ccc(C5CCNCC5)cc4)nc32)c1
130 nM	431 nM	293 nM	363 nM		161 nM	743 nM	82 nM	COc1cc(Nc2ncc3ccn(-c4cccc(NS(=O)(=O)C(C)(C)C)c4)c3n2)ccc1N1CCN(C)CC1
491 nM	378 nM	1100 nM	1000 nM	18.9 nM	248 nM	1150 nM	338 nM	CN1CCN(c2ccc(Nc3ncc4ccn(-c5cccc(NS(=O)(=O)C(C)(C)C)c5)c4n3)cc2C#N)CC1
99 nM	398 nM	206 nM	312 nM		78 nM	467 nM	242 nM	CC(C)(C)S(=O)(=O)Nc1cccc(-n2ccc3cnc(Nc4ccc(C(=O)NC5CCNCC5)c(F)c4)nc32)c1
73 nM	118 nM		230 nM	4 nM	366 nM	448 nM		Cc1cnc(Nc2ccc(N3CCN(C)CC3)cc2)nc1Nc1cccc(NS(=O)(=O)C(C)(C)C)c1 [drawing 245]
112 nM	93.4 nM		228 nM		183 nM	254 nM	313 nM	Cc1cnc(Nc2ccc(N3CCN(C)CC3)c(F)c2)nc1Nc1ccc2c(c1)N(S(=O)(=O)C(C)(C)C)CC2 [drawing 246]
175 nM	220 nM	243 nM	696 nM		270 nM	700 nM	127 nM	CN1CCN(c2ccc(Nc3ncc4ccn(-c5cccc(NS(=O)(=O)C(C)(C)C)c5)c4n3)cc2)CC1 [drawing 260]
73 nM	220 nM		230 nM	7 nM	366 nM	448 nM		Cc1cnc(Nc2ccc(N3CCN(C)CC3)cc2)nc1Nc1cccc(NS(=O)(=O)C(C)(C)C)c1 [drawing 271]
1350 nM	1460 nM		2630 nM	4.3 nM	1740 nM	6210 nM	31 nM	CN1CCN(c2ccc(Nc3ncc4ccn(-c5cccc(NS(=O)(=O)C6CC6)c5)c4n3)cc2)CC1 [drawing 297]
88 nM	150 nM	9900 nM	302 nM	52 nM		420 nM	608 nM	CNC1CCN(c2ccc(Nc3ncc4ccn(-c5ccc(F)c(NS(=O)(=O)C(C)(C)C)c5)c4n3)cc2F)CC1 [drawing 457]
